Source: patent publication US20220354957A1, “PEPTIDES TARGETING MACROPHAGES, AND CONJUGATES, COMPOSITIONS, AND USES THEREOF” (Twinpig Biolab, Inc., priority 2021, published 2022)

What was measured:
[1] = test system: murine melanoma cells (B16F10 cell line); assay: Mouse model of melanoma (subcutaneous B16F10); assay type: in vivo; conditions: vs PBS group
Excerpt: (§1) BALB/c and C57BL/6 (B6) wild-type mice were purchased from DBL. For the subcutaneous tumor model of melanoma and prostate cancer, CT26 (3×10^5 cells/mouse), B16F10 (1×10^6 cells/mouse) and TRAMP-C2 cells (1×10^6 cells/mouse) were mixed with Matrigel matrix (Corning) and inoculated subcutaneously into the right flank of the mice, and 4T1 (1×10^5 cells/mouse) cells mixed with Matrigel matrix and inoculated into a 4th mammary fat pad of the mice. TAMpepK, and MpepK peptides (200 nmol/kg) were injected intraperitoneally every 3 days, beginning at day 7 after tumor inoculation, and tumor volume was measured by electronic caliper. All tumor tissues were harvested after the end of the study and tumor weight was measured by an electronic balance.

TRAMP-C2 cells = assay: Mouse model of prostate cancer (subcutaneous TRAMP-C2); assay type: in vivo
Excerpt: as §1
Cells were harvested and lysed in PRO-PREP protein extraction solution (iNtRON, Bio Inc, Sungnam, Korea). Protein concentrations were measured with a Bradford Protein Assay Reagent kit (Bio-Rad, Richmond, CA, USA). Proteins were fractionated by 10% SDS-polyacrylamide gels electrophoresis (PAGE), and transferred onto polyvinylidene difluoride (PVDF) membranes. These were incubated with anti-arginase 1, anti-CD206, anti-caspase 3, anti-E-cadherin, anti-fibronectin, anti-PCNA, anti-TGF-β, anti-MMP9, and anti-β-actin Ab as primary antibodies. Goat anti-rabbit horseradish peroxidase-conjugated IgG or goat anti-mouse horseradish peroxidase-conjugated IgG (Abcam, Cambridge, Mass., USA) served as secondary antibodies. Protein bands were detected with a chemiluminescence reagent kit (SurModics).

CT26 = assay: Colon cancer model (CT26); assay type: in vivo, mouse; conditions: vs PBS group
Excerpt: as §1

[2] = test system: TGF-β1-induced A549 cells cocultured with IL-4 and IL-13 induced THP-1 macrophages; assay: In vitro lung fibrosis model, coculture; assay type: cell-based, human; conditions: 1.5 μM, cocultured with M2 polarization of THP-1
Experimental: THP-1 cells were purchased from the American Type Culture Collection (ATCC) and cultured according to their specific indications, using an RPMI 1640 medium supplemented with non-heat-treated 10% fetal bovine serum (FBS; WelGENE), 2 mM L-glutamine, 0.05 mM β-mercaptoethanol, 10 mM HEPES, 4500 mg/L glucose, 100 U/ml penicillin and 100 μg/ml streptomycin (Gibco). Human alveolar cell, A549 cells, obtained from the American Type Culture Collection (ATCC), were cultured in RPMI 1640 medium containing 2.05 mM L-glutamine, 2 g/liter sodium bicarbonate and 2 g/liter glucose (WelGENE) together with 10% FBS (WelGENE), 100 U/ml penicillin and 100 μg/m1 streptomycin (Gibco). Cells were cultured at 37° C. in a 5% CO2 humidified incubator to reach 80% of confluence.
THP-1 cells are differentiated into macrophages by 24 h incubation with 100 nM phorbol 12-myristate 13-acetate (PMA, Sigma) followed by 24 h incubation in RPMI medium (Invtrogen). […]
Total RNA was extracted using Easy-Blue reagent. Concentrations of RNA were determined and quantified by measuring absorbance at 260 and 280 nm with a spectrophotometer. […] PCR conditions were forty-five cycles at 95° C. for 5 min, followed by 95° C. for 10 sec, 60° C. for 10 sec and 72° C. for 10 sec. mRNA expression were quantified in triplicate. Data were measured with CFX Software (Bio-Rad). […]

Hepa1-6 cells = assay: Mouse model of hepatocellular carcinoma (subcutaneous Hepa1-6); assay type: in vivo
Experimental: C57BL/6 (B6) wild-type mice purchased from DBL. For the subcutaneous tumor model of hepatocellular carcinoma, Hepa1-6 cells were mixed with Matrigel matrix (Corning) and inoculated subcutaneously into the right flank (4×10^5 cells/mouse) of the mice. MpepK peptide (100, 200 and 400 nmol/kg) were injected intraperitoneally every 3 days, beginning at day 12 after tumor inoculation and tumor volume was measured by electronic caliper. All animals were maintained in a specific pathogen-free environment on a 12-h light/dark cycle with free access to food and water. After the experiments were terminated, all mice were euthanized using isoflurane and cervical dislocation.

[3] = B16F10 in C57BL6J mice, 200 nmol/kg i.p. every 3 days
[4] = TRAMP-C2 in C57BL6J mice, i.p. every 3 days, vs PBS group

## CC[C@H](C)[C@H](NC(=O)[C@H](CC(C)C)NC(=O)[C@H](C)NC(=O)[C@@H]1CCCN1C(=O)[C@H](CC(C)C)NC(=O)CNC(=O)[C@@H](NC(=O)[C@@H](NC(=O)[C@H](CC(C)C)NC(=O)[C@@H](NC(C)=O)C(C)C)[C@@H](C)O)[C@@H](C)O)C(=O)N[C@@H](CO)C(=O)N[C@@H](Cc1c[nH]c2ccccc12)C(=O)N[C@H](C(=O)N[C@@H](CCCCN)C(=O)N[C@@H](CCCNC(=N)N)C(=O)N[C@@H](CCCCN)C(=O)N[C@@H](CCCNC(=N)N)C(=O)N[C@@H](CCC(N)=O)C(=O)N[C@@H](CCC(N)=O)C(=O)NCC(=O)NCC(=O)NCC(=O)NCC(=O)N[C@@H](CO)C(=O)N[C@H](CCCCN)C(=O)N[C@H](CC(C)C)C(=O)N[C@H](C)C(=O)N[C@H](CCCCN)C(=O)N[C@H](CC(C)C)C(=O)N[C@H](C)C(=O)N[C@H](CCCCN)C(=O)N[C@H](CCCCN)C(=O)N[C@H](CC(C)C)C(=O)N[C@H](C)C(=O)N[C@H](CCCCN)C(=O)N[C@H](CC(C)C)C(=O)N[C@H](C)C(=O)N[C@H](CCCCN)C(=O)O)[C@@H](C)CC [MpepK]
[1]; [3]
  tumor volume: reduced
  tumor weight: reduced
[1]; B16F10 melanoma model
  survival rate: extended
TRAMP-C2 cells; [4]
  tumor volume: significantly reduced
  tumor weight: significantly reduced
TRAMP-C2 cells; TRAMP-C2 prostate cancer model
  body weight of mice: did not significantly change
TRAMP-C2 cells; prostate cancer model
  E-cadherin (epithelial cell marker) in tumor tissues: increased
  expression of PCNA (proliferative marker) in tumor tissues: reduced
  expression of TGF-β and MMP9 in tumor tissues: reduced
  vimentin and fibronectin (mesenchymal marker) in tumor tissues: reduced
CT26
  tumor volume: significantly reduced
  tumor weight: not significantly changed
[2]
  inhibitory effect on EMT and FMT of epithelial cells: no significant inhibitory effect
Hepa1-6 cells; Hepa1-6 model, 100, 200 and 400 nmol/kg i.p. every 3 days
  body weight change: no significant difference
Hepa1-6 cells; Hepa1-6 model, 100, 200 and 400 nmol/kg, vs PBS group
  survival rate: significantly extended
Hepa1-6 cells; Hepa1-6 model, all doses (100, 200 and 400 nmol/kg) i.p. every 3 days, vs PBS group
  tumor volume: significantly reduced
